# From PMC6895180 (Nature Communications, 2019)
# Values joined by “and” are separate entries in the source; they are usually repeats but may differ in a detail not shown here. Equal values may be shown once. Read-outs that look alike come from different tables or passages of the source.
# Legend:
# T. b. brucei Squib 427 = test: Mouse model of acute HAT
# Procedure: Drinking water and food were available ad libitum throughout the experiment. […] The reference drug suramin was formulated in phospahte-buffered saline (PBS) at 2.5 mg mL^−1 and administered s.i.d. i.p. for 5 days at 10 mg kg^−1 (n = 3). All treatments were initiated 30 min prior to the i.p. infection. […] Parasitaemia was determined by microscopic evaluation of tail vein blood samples at 4, 7, 10, 14 and 21 dpi (pre-set endpoint). As a test of cure, blood samples (250 µL) were collected from treated mice at 21 dpi and were sub-inoculated i.p. in naive Swiss mice (n = 3), followed by monitoring of parasitaemia as follow-up.
# [1] = test system: T. b. brucei AnTAR1.1 PPYRE9; test: Mouse model of stage 2 HAT (BLI, parasitaemia, SL-RNA qPCR); type: in vivo; settings: for BLI of the head region, RLU data: individual animals
# Procedure: […] Treatment was initiated at 21 dpi. […] Mice were injected i.p. with […] of D-luciferin and anaesthetised using isoflurane. The luminescent signal was acquired from both the dorsal and ventral side of the animals. […] Animals subjected to the different treatment schemes (from 4 wpi) were additionally imaged over a 5 min exposure time for enhanced sensitivity. […] Tissues were weighed and RNA was extracted using the RNeasy Plus Mini Kit (Qiagen) according to the manufacturer’s recommendations. […] A list of primers used is provided in the Supplementary Methods section of the Supplementary Information. BLI images from the IVIS Spectrum In Vivo Imaging System (Perkin Elmer) were analysed using LivingImage v4.3.1. SoftWoRx suite 2.0 for microscopy (image deconvolution), then processing using the Fiji software.
# [2] = Metabolic stability, rat liver microsomes (phase I and II)
# Procedure: Mouse, rat, and pooled human liver microsomes were purchased from a commercial source (Corning) and stored at -80 °C. NADPH generating system solutions A and B and UGT reaction mix solutions A and B (Corning) were kept at -20°C. The test compound and the reference compounds diclofenac (MW […]
# microsomal stability assay was carried out based on the BD Biosciences Guidelines for Use (TF000017 Rev1.0) with minor adaptations. Metabolic stability of the compounds was studied through the CYP450 superfamily (phase I metabolism) by fortification with reduced nicotinamide adenine dinucleotide phosphate (NADPH) and through uridine glucuronosyl-transferase (UGT) enzymes (phase II metabolism) by fortification with uridine diphosphate glucuronic acid (UDPGA). For the CYP450 and other NADPH dependent enzymes, both compounds were incubated at 5 µM together with 0.5 mg mL-1 liver microsomes in potassium phosphate buffer in a reaction started by the addition of 1 mM NADPH […]
# At these time points, 20 µL was withdrawn from the reaction mixture and 80 µL cold acetonitrile (ACN) containing the internal standard tolbutamide, was added to inactivate the enzymes and precipitate the proteins. The mixture was vortexed for 30 s and centrifuged at 4 °C for 5 min at 15,000 rpm. The supernatant was stored at -80°C until analysis. For the UGT enzymes, both compounds were incubated at 5 µM together with 0.5 mg mL-1 liver microsomes in a reaction started by the addition of 2 mM UDPGA cofactor. The corresponding loss of parent compound was determined using liquid chromatography (UPLC) (Waters AquityTM) coupled with tandem quadrupole mass spectrometry (MS²) (Waters XevoTM), equipped with an electrospray ionization (ESI) interface and operated in multiple reaction monitoring (MRM) mode. […]
# [3] = molecular target: Lister 427WT T. b. brucei; test: Adenosine deaminase susceptibility (drug sensitivity with/without 2 µM deoxycoformycin); type: cell-based, Trypanosoma brucei brucei; settings: for EC50: Trypanosoma brucei, Lister 427WT, mean ± SEM, n=3
# [4] = oral 25 mg kg^−1 b.i.d. for 5 days
# [5] = oral 6.25 mg kg^−1 s.i.d. for 5 days
# [6] = oral 12.5 mg kg^−1 s.i.d. for 5 days
# [7] = oral 25 mg kg^−1 s.i.d. for 5 days
# [8] = absence of deoxycoformycin, read-out: T. b. brucei EC50, -Dcf
# [9] = presence of 2 µM deoxycoformycin, read-out: T. b. brucei EC50, +Dcf
structure (smiles),measurement,setting,value
"Nc1ncnc2c1ccn2[C@@H]1O[C@H](CO)C[C@H]1O [Compound 9, 3’-deoxytubercidin]","parasitaemia, individual mice","T. b. brucei Squib 427; 6.25 mg/kg bid PO, 4 dpi",0
same,"parasitaemia, individual mice","T. b. brucei Squib 427; 6.25 mg/kg bid PO, 7 dpi",0
same,"parasitaemia, individual mice","T. b. brucei Squib 427; 6.25 mg/kg bid PO, 10 dpi",0
same,"parasitaemia, individual mice","T. b. brucei Squib 427; 6.25 mg/kg bid PO, 14 dpi",0
same,"parasitaemia, individual mice","T. b. brucei Squib 427; 6.25 mg/kg bid PO, 21 dpi",0
same,"parasitaemia, individual mice","T. b. brucei Squib 427; 12.5 mg/kg bid PO, 4 dpi",0
same,"parasitaemia, individual mice","T. b. brucei Squib 427; 12.5 mg/kg bid PO, 7 dpi",0
same,"parasitaemia, individual mice","T. b. brucei Squib 427; 12.5 mg/kg bid PO, 10 dpi",0
same,"parasitaemia, individual mice","T. b. brucei Squib 427; 12.5 mg/kg bid PO, 14 dpi",0
same,"parasitaemia, individual mice","T. b. brucei Squib 427; 12.5 mg/kg bid PO, 21 dpi",0
same,"parasitaemia, individual mice","T. b. brucei Squib 427; 25 mg/kg bid PO, 4 dpi",0
same,"parasitaemia, individual mice","T. b. brucei Squib 427; 25 mg/kg bid PO, 7 dpi",0
same,"parasitaemia, individual mice","T. b. brucei Squib 427; 25 mg/kg bid PO, 10 dpi",0
same,"parasitaemia, individual mice","T. b. brucei Squib 427; 25 mg/kg bid PO, 14 dpi",0
same,"parasitaemia, individual mice","T. b. brucei Squib 427; 25 mg/kg bid PO, 21 dpi",0
same,tolerability in mice,"T. b. brucei Squib 427; all treatment schedules, no adverse reactions, no weight loss",well tolerated
same,test of cure: blood of surviving animals at 21 dpi inoculated in treatment-naïve mice,T. b. brucei Squib 427; follow-up of parasitaemia,absence of parasitaemia
same,blood parasitaemia and survival at 21 dpi,T. b. brucei Squib 427; i.p. 10 mg kg^−1 s.i.d. for 5 days,negative blood parasitaemia and survival of all treated mice
same,blood parasitaemia and survival at 21 dpi,T. b. brucei Squib 427; oral 6.25 mg kg^−1 b.i.d. for 5 days,negative blood parasitaemia and survival of all treated mice
same,blood parasitaemia and survival at 21 dpi,T. b. brucei Squib 427; oral 12.5 mg kg^−1 b.i.d. for 5 days,negative blood parasitaemia and survival of all treated mice
same,blood parasitaemia and survival at 21 dpi,T. b. brucei Squib 427; [4],negative blood parasitaemia and survival of all treated mice
same,"RLU data, individual mice","[1]; 6.25 mg/kg SID, 3 wpi",1622000 RLU and 3182000 RLU and 2182000 RLU
same,"RLU data, individual mice","[1]; 6.25 mg/kg SID, 4 wpi",193100 RLU and 167700 RLU and 117800 RLU
same,"RLU data, individual mice","[1]; 6.25 mg/kg SID, 5 wpi",198100 RLU and 192400 RLU and 180700 RLU
same,"RLU data, individual mice","[1]; 6.25 mg/kg SID, 6 wpi",97950 RLU and 93770 RLU and 90330 RLU
same,"RLU data, individual mice","[1]; 6.25 mg/kg SID, 7 wpi",113500 RLU and 105600 RLU and 105900 RLU
same,"RLU data, individual mice","[1]; 6.25 mg/kg SID, 8 wpi",131900 RLU and 113000 RLU and 102800 RLU
same,"RLU data, individual mice","[1]; 6.25 mg/kg SID, 9 wpi",108500 RLU and 102400 RLU and 89250 RLU
same,"RLU data, individual mice","[1]; 6.25 mg/kg SID, 11 wpi",85510 RLU and 79310 RLU and 77130 RLU
same,"RLU data, individual mice","[1]; 6.25 mg/kg SID, 12 wpi",86540 RLU and 80590 RLU and 72940 RLU
same,"RLU data, individual mice","[1]; 6.25 mg/kg SID, 14 wpi",72880 RLU and 70430 RLU and 75490 RLU
same,"RLU data, individual mice","[1]; 12.5 mg/kg SID, 3 wpi",11680000 RLU and 7405000 RLU
same,"RLU data, individual mice","[1]; 12.5 mg/kg SID, 4 wpi",129800 RLU and 121500 RLU
same,"RLU data, individual mice","[1]; 12.5 mg/kg SID, 5 wpi",117000 RLU and 123200 RLU
same,"RLU data, individual mice","[1]; 12.5 mg/kg SID, 6 wpi",100200 RLU and 88860 RLU
same,"RLU data, individual mice","[1]; 12.5 mg/kg SID, 7 wpi",107000 RLU and 110100 RLU
same,"RLU data, individual mice","[1]; 12.5 mg/kg SID, 8 wpi",112000 RLU and 128000 RLU
same,"RLU data, individual mice","[1]; 12.5 mg/kg SID, 9 wpi",99900 RLU and 94080 RLU
same,"RLU data, individual mice","[1]; 12.5 mg/kg SID, 11 wpi",77540 RLU and 81340 RLU
same,"RLU data, individual mice","[1]; 12.5 mg/kg SID, 12 wpi",79330 RLU and 83380 RLU
same,"RLU data, individual mice","[1]; 12.5 mg/kg SID, 14 wpi",72090 RLU and 77840 RLU
same,"RLU data, individual mice","[1]; 25 mg/kg BID, 3 wpi",4672000 RLU and 30200000 RLU
same,"RLU data, individual mice","[1]; 25 mg/kg BID, 4 wpi",134400 RLU and 112900 RLU
same,"RLU data, individual mice","[1]; 25 mg/kg BID, 5 wpi",112900 RLU and 115900 RLU
same,"RLU data, individual mice","[1]; 25 mg/kg BID, 6 wpi",102800 RLU and 99010 RLU
same,"RLU data, individual mice","[1]; 25 mg/kg BID, 7 wpi",102400 RLU and 91660 RLU
same,"RLU data, individual mice","[1]; 25 mg/kg BID, 8 wpi",110100 RLU and 102600 RLU
same,"RLU data, individual mice","[1]; 25 mg/kg BID, 9 wpi",102800 RLU and 96280 RLU
same,"RLU data, individual mice","[1]; 25 mg/kg BID, 11 wpi",72280 RLU and 73020 RLU
same,"RLU data, individual mice","[1]; 25 mg/kg BID, 12 wpi",82420 RLU and 78930 RLU
same,"RLU data, individual mice","[1]; 25 mg/kg BID, 14 wpi",77680 RLU and 76600 RLU
same,"RLU data, individual mice","[1]; 25 mg/kg SID, 3 wpi",2495000 RLU and 617400 RLU and 13720000 RLU
same,"RLU data, individual mice","[1]; 25 mg/kg SID, 4 wpi",173900 RLU and 151500 RLU and 120200 RLU
same,"RLU data, individual mice","[1]; 25 mg/kg SID, 5 wpi",135900 RLU and 123400 RLU and 110100 RLU
same,"RLU data, individual mice","[1]; 25 mg/kg SID, 6 wpi",109500 RLU and 97640 RLU and 94120 RLU
same,"RLU data, individual mice","[1]; 25 mg/kg SID, 7 wpi",98810 RLU and 105800 RLU and 87010 RLU
same,"RLU data, individual mice","[1]; 25 mg/kg SID, 8 wpi",114800 RLU and 132100 RLU and 110100 RLU
same,"RLU data, individual mice","[1]; 25 mg/kg SID, 9 wpi",104700 RLU and 110500 RLU and 91280 RLU
same,"RLU data, individual mice","[1]; 25 mg/kg SID, 11 wpi",73650 RLU and 88470 RLU and 81640 RLU
same,"RLU data, individual mice","[1]; 25 mg/kg SID, 12 wpi",90290 RLU and 88590 RLU and 87820 RLU
same,"RLU data, individual mice","[1]; 25 mg/kg SID, 14 wpi",78620 RLU and 86010 RLU and 72810 RLU
same,"BLI of the head region, RLU data","[1]; 3 wpi (start of treatment, 21 dpi)",48700000 RLU and 33400000 RLU
same,"BLI of the head region, RLU data",[1]; 4 wpi,98400 RLU and 114000 RLU
same,"BLI of the head region, RLU data",[1]; 5 wpi,100000 RLU and 105000 RLU
same,"BLI of the head region, RLU data",[1]; 6 wpi,109000 RLU and 110000 RLU
same,"BLI of the head region, RLU data",[1]; 7 wpi,99500 RLU and 92000 RLU
same,"BLI of the head region, RLU data",[1]; 8 wpi,107000 RLU and 96700 RLU
same,"BLI of the head region, RLU data",[1]; 9 wpi,90800 RLU and 104000 RLU
same,BLI follow-up of surviving mice up to 14 wpi,"[1]; mouse, in vivo",did not reveal any signs of relapse
same,bioluminescent imaging (BLI),[1]; [5],total clearance in all organs including the CNS
same,blood parasitaemia up to 9 wpi,[1]; [5],negative blood parasitaemia
same,bioluminescent imaging (BLI),[1]; [6],total clearance in all organs including the CNS
same,blood parasitaemia up to 9 wpi,[1]; [6],negative blood parasitaemia
same,bioluminescent imaging (BLI),[1]; [4],"total clearance of all organs, including the CNS"
same,blood parasitaemia and survival at 9 wpi,[1]; oral 25 mg kg^−1 b.i.d. for 5 days from 21 dpi,negative blood parasitaemia and survived the pre-set endpoint
same,bioluminescent imaging (BLI),[1]; [7],total clearance in all organs including the CNS
same,blood parasitaemia up to 9 wpi,[1]; [7],negative blood parasitaemia
same,"parasite burdens in brain, spleen and fat by SL-RNA qPCR",[1]; tissues collected at 121 dpi,complete absence of parasite burdens
same,luminescent signal in the head region,[1]; to levels similar to a non-infected control mouse,rapid decline of the signal
same,"% analogue remaining, EXP 1 / EXP 2","[2]; microsomes, 0 min, 5 µM",100%
same,"% analogue remaining, Mean","[2]; microsomes, 0 min, 5 µM",100%
same,metabolic stability,"[2]; s9, 0.5 h",metabolically stable
same,effect of adenosine deaminase inhibition (2’-deoxycoformycin) on EC50,[3],not significantly affected
same,EC50,[3]; [8],37 ± 3 nM
same,EC50,[3]; [9],49 ± 9 nM
"Nc1ncnc2c1c(Br)cn2[C@@H]1O[C@H](CO)C[C@H]1O [Compound 10, 3’-deoxy-7-Br-tubercidin]",tolerability in mice,T. b. brucei Squib 427; 6.25 mg kg^−1 orally,not well tolerated
same,effect of adenosine deaminase inhibition (2’-deoxycoformycin) on EC50,[3],not significantly affected
same,EC50,[3]; [8],2 ± 0.1 nM
same,EC50,[3]; [9],1.9 ± 0.2 nM
